Reference: ChEMBL document CHEMBL4004838, “Design and synthesis of novel phenyl -1, 4-beta-carboline-hybrid molecules as potential anticancer agents” (Eur J Med Chem, 2017)

What was measured:
Assay type in all cases: functional
SNB-75 [1] = experiment: Growth inhibition of human SNB75 cells assessed as cell growth at 0.1 uM incubated for 48 hrs by sulforhodamine B assay relative to control; details: SNB-75, 48 h, read-out: Activity
DU-145 = experiment: Growth inhibition of human DU145 cells assessed as cell growth at 1 uM incubated for 48 hrs by sulforhodamine B assay relative to control; details: DU-145, 48 h, read-out: Activity
NCI-H522 = experiment: Growth inhibition of human NCI-H522 cells assessed as cell growth at 100 uM incubated for 48 hrs by sulforhodamine B assay relative to control; details: NCI-H522, 48 h, read-out: Activity
HCC 2998 = experiment: Growth inhibition of human HCC2998 cells assessed as cell growth at 0.1 uM incubated for 48 hrs by sulforhodamine B assay relative to control; details: HCC 2998, 48 h, read-out: Activity
NCI/ADR-RES = experiment: Growth inhibition of human NCI-ADR-RES cells incubated for 48 hrs by sulforhodamine B assay
T47D = experiment: Growth inhibition of human T47D cells incubated for 48 hrs by sulforhodamine B assay
CCRF-CEM = experiment: Growth inhibition of human CCRF-CEM cells assessed as cell growth at 1 uM incubated for 48 hrs by sulforhodamine B assay relative to control; details: read-out: Activity
UACC-62 [2] = experiment: Growth inhibition of human UACC62 cells assessed as cell growth at 0.1 uM incubated for 48 hrs by sulforhodamine B assay relative to control; details: UACC-62, 48 h, read-out: Activity
U-251 [3] = experiment: Growth inhibition of human U251 cells assessed as cell growth at 100 uM incubated for 48 hrs by sulforhodamine B assay relative to control; details: U-251, 48 h, read-out: Activity
SF-539 = experiment: Growth inhibition of human SF539 cells assessed as cell growth at 100 uM incubated for 48 hrs by sulforhodamine B assay relative to control; details: SF-539, 48 h, read-out: Activity
SK-OV-3 [4] = experiment: Growth inhibition of human SKOV3 cells assessed as cell growth at 100 uM incubated for 48 hrs by sulforhodamine B assay relative to control; details: SK-OV-3, 48 h, read-out: Activity
IGROV-1 = experiment: Growth inhibition of human IGROV1 cells assessed as cell growth at 0.01 uM incubated for 48 hrs by sulforhodamine B assay relative to control; details: IGROV-1, 48 h, read-out: Activity
NCI-H322M = experiment: Growth inhibition of human NCI-H322M cells assessed as cell growth at 1 uM incubated for 48 hrs by sulforhodamine B assay relative to control; details: read-out: Activity
SR = experiment: Growth inhibition of human SR cells assessed as cell growth at 1 uM incubated for 48 hrs by sulforhodamine B assay relative to control; details: read-out: Activity
M14 = experiment: Growth inhibition of human M14 cells assessed as cell growth at 0.1 uM incubated for 48 hrs by sulforhodamine B assay relative to control; details: M14, 48 h, read-out: Activity
MOLT-4 = experiment: Growth inhibition of human MOLT4 cells assessed as cell growth at 0.01 uM incubated for 48 hrs by sulforhodamine B assay relative to control; details: MOLT-4, 48 h, read-out: Activity
NCI-H460 = experiment: Growth inhibition of human NCI-H460 cells incubated for 48 hrs by sulforhodamine B assay; details: NCI-H460, 48 h
CAKI-1 = experiment: Growth inhibition of human Caki1 cells assessed as cell growth at 100 uM incubated for 48 hrs by sulforhodamine B assay relative to control; details: CAKI-1, 48 h, read-out: Activity
COLO 205 = experiment: Growth inhibition of human COLO205 cells assessed as cell growth at 1 uM incubated for 48 hrs by sulforhodamine B assay relative to control; details: COLO 205, 48 h, read-out: Activity
PC-3 = experiment: Growth inhibition of human PC3 cells assessed as cell growth at 100 uM incubated for 48 hrs by sulforhodamine B assay relative to control; details: PC-3, 48 h, read-out: Activity
Malme-3M = experiment: Growth inhibition of human MALME-3M cells assessed as cell growth at 0.1 uM incubated for 48 hrs by sulforhodamine B assay relative to control; details: read-out: Activity
UACC-62 [5] = experiment: Growth inhibition of human UACC62 cells assessed as cell growth at 100 uM incubated for 48 hrs by sulforhodamine B assay relative to control; details: UACC-62, 48 h, read-out: Activity
SNB-75 [6] = experiment: Growth inhibition of human SNB75 cells assessed as cell growth at 100 uM incubated for 48 hrs by sulforhodamine B assay relative to control; details: SNB-75, 48 h, read-out: Activity
SF-295 = experiment: Growth inhibition of human SF295 cells assessed as cell growth at 0.01 uM incubated for 48 hrs by sulforhodamine B assay relative to control; details: SF-295, 48 h, read-out: Activity
NCI-H23 = experiment: Growth inhibition of human NCI-H23 cells incubated for 48 hrs by sulforhodamine B assay; details: NCI-H23, 48 h
SK-OV-3 [7] = experiment: Growth inhibition of human SKOV3 cells assessed as cell growth at 0.1 uM incubated for 48 hrs by sulforhodamine B assay relative to control; details: SK-OV-3, 48 h, read-out: Activity
UACC-257 = experiment: Growth inhibition of human UACC257 cells assessed as cell growth at 1 uM incubated for 48 hrs by sulforhodamine B assay relative to control; details: UACC-257, 48 h, read-out: Activity
MDA-MB-468 = experiment: Growth inhibition of human MDA-MB-468 cells incubated for 48 hrs by sulforhodamine B assay; details: MDA-MB-468, 48 h
RXF 393 [8] = experiment: Growth inhibition of human RXF393 cells assessed as cell growth at 0.1 uM incubated for 48 hrs by sulforhodamine B assay relative to control; details: RXF 393, 48 h, read-out: Activity
RXF 393 [9] = experiment: Growth inhibition of human RXF393 cells assessed as cell growth at 100 uM incubated for 48 hrs by sulforhodamine B assay relative to control; details: RXF 393, 48 h, read-out: Activity
U-251 [10] = experiment: Growth inhibition of human U251 cells incubated for 48 hrs by sulforhodamine B assay; details: U-251, 48 h
[11] = read-out: LC50 (the source's name)
[12] = read-out: pLC50 (the source's name) (converted)

In the case of `c1ccc2c3c([nH]c2c1)C(c1ccc(C2NCCc4c2[nH]c2ccccc42)cc1)NCC3` (racemic), the growth at 0.1 µM (SNB-75 [1]) is reported as 72%, the growth at 1 µM (DU-145) is reported as 43% and the growth at 100 µM (NCI-H522) is reported as 81%. For the same compound, the growth at 0.1 µM (HCC 2998) was 81%, the GI50 (NCI/ADR-RES; read-out: GI50) was 2.1 µM and the CC50 (NCI/ADR-RES; [11]) was > 1 µM. For the same compound, the TGI (NCI/ADR-RES; read-out: TGI) was 7.81 µM, the GI50 (NCI/ADR-RES; read-out: pGI50 (converted)) was 2.09 µM and the CC50 (NCI/ADR-RES; read-out: pLC50 (converted)) was > 100 µM. For the same compound, the TGI (NCI/ADR-RES; read-out: pTGI (converted)) was 7.76 µM, the GI50 (T47D; read-out: GI50) was 1.31 µM and the CC50 (T47D; [11]) was 7.13 µM. The TGI (T47D; read-out: TGI) was 3.06 µM, the GI50 (T47D; read-out: pGI50 (converted)) was 1.32 µM and the CC50 (T47D; [12]) was 7.08 µM. The TGI (T47D; read-out: pTGI (converted)) was 3.09 µM, the growth at 1 µM (CCRF-CEM) was 21% and the growth at 0.1 µM (UACC-62 [2]) was 99%. For the same compound, the growth at 100 µM (U-251 [3]) was 92%, the growth at 100 µM (SF-539) was 97% and the growth at 100 µM (SK-OV-3 [4]) was -96%. For the same compound, the growth at 0.01 µM (IGROV-1) was 99%, the growth at 1 µM (NCI-H322M) was 65% and the growth at 1 µM (SR) was 36%. The growth at 0.1 µM (M14) was 94%, the growth at 0.01 µM (MOLT-4) was 110% and the GI50 (NCI-H460; read-out: GI50) was 2.21 µM. It also gave a CC50 (NCI-H460; [11]) of 9.12 µM, a TGI (NCI-H460; read-out: TGI) of 4.49 µM and a GI50 (NCI-H460; read-out: pGI50 (converted)) of 0.219 µM. For the same compound, the CC50 (NCI-H460; [12]) was 0.912 µM, the TGI (NCI-H460; read-out: pTGI (converted)) was 4.47 µM and the growth at 100 µM (CAKI-1) was -98%. For the same compound, the growth at 1 µM (COLO 205) was 48%, the growth at 100 µM (PC-3) was -93% and the growth at 0.1 µM (Malme-3M) was 89%. The growth at 100 µM (UACC-62 [5]) was 93%, the growth at 100 µM (SNB-75 [6]) was 98% and the growth at 0.01 µM (SF-295) was 90%. The GI50 (NCI-H23; read-out: GI50) was 1.65 µM, the CC50 (NCI-H23; [11]) was 6.83 µM and the TGI (NCI-H23; read-out: TGI) was 3.36 µM. The GI50 (NCI-H23; read-out: pGI50 (converted)) was 1.66 µM, the CC50 (NCI-H23; [12]) was 6.76 µM and the TGI (NCI-H23; read-out: pTGI (converted)) was 3.39 µM. For the same compound, the growth at 0.1 µM (SK-OV-3 [7]) was 95%, the growth at 1 µM (UACC-257) was 103% and the CC50 (MDA-MB-468; [11]) was 5.01 µM. The GI50 (MDA-MB-468; read-out: pGI50 (converted)) was 0.363 µM, the CC50 (MDA-MB-468; [12]) was 5.01 µM and the TGI (MDA-MB-468; read-out: pTGI (converted)) was 1.35 µM. The growth at 0.1 µM (RXF 393 [8]) was 101%, the growth at 100 µM (RXF 393 [9]) was -81% and the GI50 (U-251 [10]; read-out: pGI50 (converted)) was 0.324 µM. The TGI (U-251 [10]; read-out: pTGI (converted)) was 1.1 µM.
